No end group written: not given here.
Legend:
S. aureus MW2 = assay: microbe, parasite or virus in culture; format: cell-based, Staphylococcus aureus; details: MW2, 18 h
Protocol: To determine the MICs of peptides, we used the broth microdilution method described by the Clinical and Laboratory Standards Institute. We made serial dilutions of 10× concentration (10 µL) for each peptide in duplicates in 96-well plates (Cat No. 3595, Corning, New York, NY, USA). We added 90 µL of logarithmic-phase bacteria at 5 × 10^5 CFU/mL (in BHI media) to the peptides and then incubated the plates at 37 °C for 18 h. We measured the OD600 absorbance readings using the Spectra Max i3x spectrophotometer (Molecular Devices, San Jose, CA, USA) and determined the MIC as the peptide concentration that inhibits the growth of bacteria.

[1] = system: biofilm genes ace, esp, ebpA, ebpC of E. faecium strain C68; assay: qPCR of genes associated with biofilm formation; format: cell-based, Enterococcus faecium; details: 0.5× MIC, 30 min, real-time PCR
Protocol: For the qPCR of genes associated with biofilm formation, we followed an established protocol for RNA isolation and quantitative PCR reactions with minor modifications. We prepared exponential cultures of E. faecium strain C68 adjusted to an OD600 = 0.4 in BHI media from overnight grown cultures. After treating 10 mL of bacterial culture with 0.5× MICs of 5L and 6L for 30 min, we extracted RNA using the RNeasy mini kit (Qiagen, Hilden, Germany) according to the manufacturer’s instructions. Using the primers listed in Supplementary Table S2, we performed cDNA synthesis and quantitative reverse transcription (RT)-PCR as recommended by the manufacturer (Bio-Rad, Hercules, CA, USA). Our qPCR cycling conditions were: 95 °C for 30 s; 40 cycles at 95 °C for 5 s; 55 °C for 30 s; and finished with a melt curve analysis from 65 to 95 °C.

[2] = system: E. faecium strain C68 exponential cells; assay: Exponential cell time-kill assay; format: cell-based, Enterococcus faecium; details: 10× MIC, PBS
Protocol: For the generation of antibiotic-induced persister cells, we followed an established protocol. In brief, 25 mL of E. faecium strain C68 culture was grown to the stationary phase and then treated with gentamicin at 400 μg/mL for 5 h. We then disposed of the antibiotic-containing media and regrew the bacteria for another 18 h in fresh media. To produce stable persister cells, we repeated the cycle of antibiotic exposure and regrowth five times. The bacteria culture was then washed with the same volume of phosphate-buffered saline (PBS) 3× times and adjusted to 1 × 10^7 CFU/mL in PBS. For killing kinetics of the persister cells, we added 1 mL of the cell suspension to the wells of a 2 mL deep well assay block (Cat No. 3960, Corning, NY, USA) containing 10× MICs of 5L and 6L and incubated them at 37 °C, with shaking at 225 rpm. At specific times (0, 15, 30, 60, and 120 min), we collected 20 μL samples, diluted them serially, and then plated them on tryptic soy agar (TSA) (BD Difco, Franklin Lakes, NJ, USA) plates for 18 h at 37 °C for colony counting. We performed the experiments in duplicate. As a comparison, we prepared the exponential cells of E. faecium strain C68 in PBS and analyzed their killing kinetics in the same manner as described for persister cells.

[3] = system: human red blood cells (hRBCs); format: cell-based
Protocol: We evaluated the ability of the peptide to cause hemoglobin leakage using the method described in [15]. In brief, we washed human erythrocytes (Rockland Immunochemicals (Limerick, Pottstown, PA, USA)) 3× times in an equal volume of PBS and resuspended them as 2% hRBCs solution. We added 90 µL of the blood cells to 10 µL of the peptide solution (10×) in a 96-well microtiter plate (Cat No. 3595, Corning, New York, NY, USA) and incubated the plates at 37 °C for 1 h. Next, we centrifuged the plates at 500× g for 5 min, transferred 60 µL of the supernatant into a fresh 96-well plate, and read the absorbance at 540 nm. We calculated the percent hemolysis considering 100% hemolysis caused by 1% Triton X-100, and 0% on PBS and using the formula for percentage of hemolysis as: (A540 nm in the peptide solution − A540 nm in PBS)/(A540 nm of 1% Triton X-100-treated sample − A540 nm in PBS) × 100.

| Substance | MIC S. aureus MW2 (S. aureus MW2) [µg/mL] | downregulation of ace expression [1] [folds] | downregulation of ebpA expression [1] [fold] | downregulation of ebpC expression [1] [fold] | downregulation of esp expression [1] [fold] | time to eliminate all 10^7 CFU of exponential cells [2] [min] | HL50 [3] [µg/mL] |
| --- | --- | --- | --- | --- | --- | --- | --- |
| RRWLWLRRWLWR-NH2 [Peptide 5L] | > 32 | 8 | 2 | 2 | 4 | 120 | 56 |
| RRWLWRLRWLWR-NH2 [Peptide 6L] | 32 | 4 | – | 2 | – | 60 | 34 |

From article PMC9404989, “Design and Evaluation of Short Bovine Lactoferrin-Derived Antimicrobial Peptides against Multidrug-Resistant Enterococcus faecium” (Antibiotics, 2022)
